Measurements reported in the supplement of paper PMC4862054.

Test system: CAL-51
Conditions: 72 h
Description: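 Drug sensitivity and resistance testing (DSRT) of breast cancer cell lines in 384-well plates, 5 concentrations in 10-fold dilutions over a compound-specific 10,000-fold range. After 72 h, cytotoxicity was read by CellTox Green fluorescence and viability by CellTiter-Glo luminescence (multiplexed), normalised to DMSO and benzethonium chloride controls. EC50 is the inflection point of the fitted dose-response curve (bottom asymptote free, so it can be relative for partial curves) and is censored at the highest tested concentration. Rows with DSS 0 (no meaningful response) were excluded.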

Structure (SMILES)	EC50, CellTox Green [nM]
CC[C@H](CC#N)OC(=O)N[C@@H](C)c1cccc(NC(=O)Nc2ccc(-c3cnco3)c(OC)c2)c1 [AVN944]	176
Cc1c(N)nc([C@H](CC(N)=O)NC[C@H](N)C(N)=O)nc1C(=O)N[C@H](C(=O)N[C@H](C)[C@@H](O)[C@H](C)C(=O)N[C@H](C(=O)NCCc1nc(-c2nc(C(=O)NCCC[S+](C)C)cs2)cs1)[C@@H](C)O)[C@@H](OC1OC(CO)C(O)C(O)C1OC1OC(CO)C(O)C(OC(N)=O)C1O)c1cnc[nH]1 (some centres undefined) [Bleomycin]	20.5
CC(C)C[C@H](NC(=O)[C@H](CCc1ccccc1)NC(=O)CN1CCOCC1)C(=O)N[C@@H](Cc1ccccc1)C(=O)N[C@@H](CC(C)C)C(=O)[C@@]1(C)CO1 [Carfilzomib]	5.31
Nc1nc(Cl)nc2c1ncn2[C@@H]1O[C@H](CO)[C@@H](O)[C@@H]1F [Clofarabine]	108
CCc1cnn2c(NCc3ccc[n+]([O-])c3)cc(N3CCCC[C@H]3CCO)nc12 [Dinaciclib]	13
COc1cc2c(Oc3ccc(NC(=O)C4(C(=O)Nc5ccc(F)cc5)CC4)cc3F)ccnc2cc1OCCCN1CCOCC1 [Foretinib]	251
CC(C)NC[C@@H](C(=O)N1CCN(c2ncnc3c2[C@H](C)C[C@H]3O)CC1)c1ccc(Cl)cc1 [GDC-0068]	1150
NC(=O)NO [Hydroxyurea]	16300
COc1cc2c(cc1-c1c(C)noc1C)ncc1[nH]c(=O)n([C@H](C)c3ccccn3)c12 [I-BET151]	1740
N[C@@H](Cc1ccc(N(CCCl)CCCl)cc1)C(=O)O [Melphalan]	194
O=C(c1cc(Cc2n[nH]c(=O)c3ccccc23)ccc1F)N1CCN(C(=O)C2CC2)CC1 [Olaparib]	8300
CO[C@H](C(=O)[C@@H](O)[C@@H](C)O)[C@@H]1Cc2cc3cc(O[C@H]4C[C@@H](O[C@@H]5C[C@@H](O)[C@H](O)[C@@H](C)O5)[C@H](O)[C@@H](C)O4)c(C)c(O)c3c(O)c2C(=O)[C@H]1O[C@H]1C[C@@H](O[C@@H]2C[C@@H](O)[C@@H](O[C@@H]3C[C@](C)(O)[C@H](O)[C@@H](C)O3)[C@@H](C)O2)[C@H](O)[C@@H](C)O1 [Plicamycin]	2120
CN1CCc2c(c3ccccc3n2Cc2ccc(C(=O)NO)cc2)C1 [Tubastatin A]	2220
CC[C@@H]1C(=O)N(C)c2cnc(Nc3ccc(C(=O)N[C@H]4CC[C@H](N5CCN(CC6CC6)CC5)CC4)cc3OC)nc2N1C(C)C [Volasertib]	20.7
